# In PubChem BioAssay AID1963841 (Molecular Pharmacology Branch, DTP, NCI, 2024):
# System: 439559-082-T-J2-PDC spheroid viability
# Assay: Anticancer human tumor 439559-082-T-J2-PDC patient-derived colon adenocarcinoma cell line growth inhibition [POLQ]
# Settings: spheroids with HUVEC and MSC; for IC50: curve of first compound; for viability, T/C: stronger effect = lower value
# Procedure, shortened: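 PDC + HUVEC + MSC complex spheroids; POLQ inhibitors ± partner drugs; top conc. at/near clinical Cmax, else 10 microM (SN-38 1 microM), half-log dilutions; 37 degrees C, 5% CO2.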
# [1] = second compound 0.0316 µM, first compound 0.0316 µM
# [2] = second compound 0.0316 µM, first compound 0.1 µM
# [3] = second compound 0.0316 µM, first compound 0.316 µM
# [4] = second compound 0.0316 µM, first compound 1 µM
# [5] = second compound 0.0316 µM, first compound 3.16 µM
# [6] = second compound 0.0316 µM, first compound 10 µM
# [7] = second compound 0.1 µM, first compound 0.0316 µM
# [8] = second compound 0.1 µM, first compound 0.1 µM
# [9] = second compound 0.1 µM, first compound 0.316 µM
# [10] = second compound 0.1 µM, first compound 1 µM
# [11] = second compound 0.1 µM, first compound 3.16 µM
# [12] = second compound 0.1 µM, first compound 10 µM
# [13] = second compound 0.316 µM, first compound 0.0316 µM
# [14] = second compound 0.316 µM, first compound 0.1 µM
# [15] = second compound 0.316 µM, first compound 0.316 µM
# [16] = second compound 0.316 µM, first compound 1 µM
# [17] = second compound 0.316 µM, first compound 3.16 µM
# [18] = second compound 0.316 µM, first compound 10 µM
# [19] = second compound 1 µM, first compound 0.0316 µM
# [20] = second compound 1 µM, first compound 0.1 µM
# [21] = second compound 1 µM, first compound 0.316 µM
# [22] = second compound 1 µM, first compound 1 µM
# [23] = second compound 1 µM, first compound 3.16 µM
# [24] = second compound 1 µM, first compound 10 µM
# [25] = second compound 3.16 µM, first compound 0.0316 µM
# [26] = second compound 3.16 µM, first compound 0.1 µM
# [27] = second compound 3.16 µM, first compound 0.316 µM
# [28] = second compound 3.16 µM, first compound 1 µM
# [29] = second compound 3.16 µM, first compound 3.16 µM
# [30] = second compound 3.16 µM, first compound 10 µM
# [31] = second compound 10 µM, first compound 0.0316 µM
# [32] = second compound 10 µM, first compound 0.1 µM
# [33] = second compound 10 µM, first compound 0.316 µM
# [34] = second compound 10 µM, first compound 1 µM
# [35] = second compound 10 µM, first compound 3.16 µM
# [36] = second compound 10 µM, first compound 10 µM
# 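Also: spheroids exposed to compounds for seven days before readout.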
# 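For viability, T/C in this document: 100% = DMSO vehicle control viability.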
smiles,measurement,setting,value
C#Cc1c(F)ccc2cc(O)cc(-c3ncc4c(N5CC6CCC(C5)N6)nc(OCC56CCCN5CC(F)C6)nc4c3F)c12 (stereo unspecified) + Cc1cccc(N(C)C(=O)C2C(O)CCN2c2nc(C)cc(C(F)(F)F)c2C#N)c1,IC50,second compound 0.0316 µM,> 10 µM
same,IC50,second compound 0.1 µM,> 10 µM
same,IC50,second compound 0.316 µM,> 10 µM
same,IC50,second compound 1 µM,> 10 µM
same,IC50,second compound 3.16 µM,> 10 µM
same,IC50,second compound 10 µM,7.64 µM
same,"viability, T/C",[1],92%
same,"viability, T/C",[2],86.6%
same,"viability, T/C",[3],72.3%
same,"viability, T/C",[4],63.1%
same,"viability, T/C",[5],61.9%
same,"viability, T/C",[6],52.5%
same,"viability, T/C",[7],100%
same,"viability, T/C",[8],81.5%
same,"viability, T/C",[9],72.1%
same,"viability, T/C",[10],70.7%
same,"viability, T/C",[11],59.2%
same,"viability, T/C",[12],55%
same,"viability, T/C",[13],99%
same,"viability, T/C",[14],87.6%
same,"viability, T/C",[15],72%
same,"viability, T/C",[16],69.9%
same,"viability, T/C",[17],61.2%
same,"viability, T/C",[18],60.3%
same,"viability, T/C",[19],87.6%
same,"viability, T/C",[20],78.1%
same,"viability, T/C",[21],72.4%
same,"viability, T/C",[22],66.7%
same,"viability, T/C",[23],62%
same,"viability, T/C",[24],51.8%
same,"viability, T/C",[25],94.5%
same,"viability, T/C",[26],80.9%
same,"viability, T/C",[27],69.8%
same,"viability, T/C",[28],65.7%
same,"viability, T/C",[29],63.2%
same,"viability, T/C",[30],52.5%
same,"viability, T/C",[31],81.2%
same,"viability, T/C",[32],69.1%
same,"viability, T/C",[33],69%
same,"viability, T/C",[34],58.1%
same,"viability, T/C",[35],58.2%
same,"viability, T/C",[36],46.7%
CC[C@@]1(O)C(=O)OCc2c1cc1n(c2=O)Cc2cc3c(CN(C)C)c(O)ccc3nc2-1 + Cc1cccc(N(C)C(=O)C2C(O)CCN2c2nc(C)cc(C(F)(F)F)c2C#N)c1,IC50,second compound 0.0316 µM,> 0.1 µM
same,IC50,second compound 0.1 µM,> 0.1 µM
same,IC50,second compound 0.316 µM,> 0.1 µM
same,IC50,second compound 1 µM,> 0.1 µM
same,IC50,second compound 3.16 µM,> 0.1 µM
same,IC50,second compound 10 µM,> 0.1 µM
same,"viability, T/C","second compound 0.0316 µM, first compound 0.000316 µM",94.1%
same,"viability, T/C","second compound 0.0316 µM, first compound 0.001 µM",101%
same,"viability, T/C","second compound 0.0316 µM, first compound 0.00316 µM",96%
same,"viability, T/C","second compound 0.0316 µM, first compound 0.01 µM",97.2%
same,"viability, T/C",[1],92.2%
same,"viability, T/C",[2],85%
same,"viability, T/C","second compound 0.1 µM, first compound 0.000316 µM",113%
same,"viability, T/C","second compound 0.1 µM, first compound 0.001 µM",105%
same,"viability, T/C","second compound 0.1 µM, first compound 0.00316 µM",93.7%
same,"viability, T/C","second compound 0.1 µM, first compound 0.01 µM",103%
same,"viability, T/C",[7],97.3%
same,"viability, T/C",[8],79.1%
same,"viability, T/C","second compound 0.316 µM, first compound 0.000316 µM",98.1%
same,"viability, T/C","second compound 0.316 µM, first compound 0.001 µM",112%
same,"viability, T/C","second compound 0.316 µM, first compound 0.00316 µM",94.9%
same,"viability, T/C","second compound 0.316 µM, first compound 0.01 µM",89.8%
same,"viability, T/C",[13],84.9%
same,"viability, T/C",[14],83.4%
same,"viability, T/C","second compound 1 µM, first compound 0.000316 µM",104%
same,"viability, T/C","second compound 1 µM, first compound 0.001 µM",96.5%
same,"viability, T/C","second compound 1 µM, first compound 0.00316 µM",93.1%
same,"viability, T/C","second compound 1 µM, first compound 0.01 µM",93%
same,"viability, T/C",[19],90.3%
same,"viability, T/C",[20],80.9%
same,"viability, T/C","second compound 3.16 µM, first compound 0.000316 µM",96.2%
same,"viability, T/C","second compound 3.16 µM, first compound 0.001 µM",101%
same,"viability, T/C","second compound 3.16 µM, first compound 0.00316 µM",98.9%
same,"viability, T/C","second compound 3.16 µM, first compound 0.01 µM",93.5%
same,"viability, T/C",[25],89.9%
same,"viability, T/C",[26],76.5%
same,"viability, T/C","second compound 10 µM, first compound 0.000316 µM",93.2%
same,"viability, T/C","second compound 10 µM, first compound 0.001 µM",89.4%
same,"viability, T/C","second compound 10 µM, first compound 0.00316 µM",92.8%
same,"viability, T/C","second compound 10 µM, first compound 0.01 µM",91.6%
same,"viability, T/C",[31],90.3%
same,"viability, T/C",[32],75%
C=CC(=O)N1CCN(c2nc(=O)n(-c3c(C)ccnc3C(C)C)c3nc(-c4c(O)cccc4F)c(F)cc23)C(C)C1 (stereo unspecified) + COC1C(OC(N)=O)C(O)C(Oc2ccc3c(O)c(NC(=O)c4ccc(O)c(CC=C(C)C)c4)c(=O)oc3c2C)OC1(C)C,IC50,second compound 0.0316 µM,> 10 µM
same,IC50,second compound 0.1 µM,> 10 µM
same,IC50,second compound 0.316 µM,> 10 µM
same,IC50,second compound 1 µM,> 10 µM
same,IC50,second compound 3.16 µM,> 10 µM
same,IC50,second compound 10 µM,> 10 µM
same,"viability, T/C",[1],95.8%
same,"viability, T/C",[2],93.5%
same,"viability, T/C",[3],104%
same,"viability, T/C",[4],101%
same,"viability, T/C",[5],104%
same,"viability, T/C",[6],91.4%
same,"viability, T/C",[7],96.7%
same,"viability, T/C",[8],105%
same,"viability, T/C",[9],98%
same,"viability, T/C",[10],101%
same,"viability, T/C",[11],106%
same,"viability, T/C",[12],96.9%
same,"viability, T/C",[13],103%
same,"viability, T/C",[14],96.3%
same,"viability, T/C",[15],99.7%
same,"viability, T/C",[16],101%
same,"viability, T/C",[17],107%
same,"viability, T/C",[18],98.6%
same,"viability, T/C",[19],106%
same,"viability, T/C",[20],105%
same,"viability, T/C",[21],97.6%
same,"viability, T/C",[22],101%
same,"viability, T/C",[23],109%
same,"viability, T/C",[24],98.8%
same,"viability, T/C",[25],98.1%
same,"viability, T/C",[26],101%
same,"viability, T/C",[27],101%
same,"viability, T/C",[28],104%
same,"viability, T/C",[29],98.5%
same,"viability, T/C",[30],102%
same,"viability, T/C",[31],103%
same,"viability, T/C",[32],92.8%
same,"viability, T/C",[33],98.8%
same,"viability, T/C",[34],109%
same,"viability, T/C",[35],106%
same,"viability, T/C",[36],98.8%
